In patent US11318118B1, “Methods and compositions for treating SARS-CoV-2 infection using carboxyamidotriazole orotate” (TACTICAL THERAPEUTICS INC., priority 2021, dated 2022):
Read-outs that look alike come from different tables or passages of the source.

What was measured:
SARS-CoV-2 = format: cell-based; settings: Vero E6 cells
[1] = test system: non-infected Vero E6 cells; settings: read-out: EC 50 in non-infected Vero E6 cells; cell viability, Cell Titer Glo
plasma cytokines = experiment: Luminex (Milliplex MAP Human Cytokine/Chemokine Magnetic Bead Panel) testing of plasma specimens from Phase I cancer patients given CTO; format: in vivo; design: key to VEGF plasma level / IL-15 plasma level / IL-17A plasma level / IL-1RA plasma level / IL-2 plasma level / IL-4 plasma level / IL-6 plasma level / IL-8 plasma level / IP-10 plasma level / MIP1a plasma level / RANTES plasma level / EGF plasma level / **IL-1β plasma level (second entry of the list) / **TNFα plasma level / GM-CSF plasma level / IFNγ plasma level / IL-1β plasma level (first entry of the list) / IL-12p40 plasma level / IL-12p70 plasma level / IL-13 plasma level: + increased; − decreased
Protocol: In a Phase I trial of CTO testing the safety and tolerability of CTO in cancer patients, Plasa samples were obtained from three patients after administration of different doses of CTO daily as follows: 1) NSCLC Patient 002-46 (CTO 555 mg/m2), 2) NSCLC Patient 002-50 (CTO 427 mg/m2) and 3) Ovarian Cancer Patient 002-53 (CTO 427 mg/m2) The levels of cytokines were measured by using the HCYTMAG-60K-PX30/Milliplex MAP Human Cytokine/Chemokine Magnetic Bead Panel from Milliplex, USA.
Table 1. Target Cytokines in Luminex Panel Testing of Plasma Specimens-Results
Expressed as Cytokine (+ increased) or (− decreased)

SARS-CoV-2 infection = format: in vivo; settings: one patient, CTO 600 mg daily oral, on the second day
[2] = CTO 427-555 mg/m2 daily, three cancer patients, versus baseline
[3] = CTO doses ranging from 427 mg/m2 to 555 mg/m2

For NC(=O)c1nnn(Cc2cc(Cl)c(C(=O)c3ccc(Cl)cc3)c(Cl)c2)c1N.O=C(O)c1cc(=O)[nH]c(=O)[nH]1 [CTO], which IC50 (SARS-CoV-2; 72 hours post-inoculation, read-out: IC50, CPE assay (highest dose tested)) is on record?
Its IC50 is over 20 µM.

And the “replication of SARS-CoV-2” value (SARS-CoV-2; CTO up to 5 μM)?
Its value is “inhibited”.

And the IC50 (SARS-CoV-2; FIG. 2, read-out: IC50, cytopathic effect (CPE) for SARS-CoV-2)?
The IC50 was over 20 µM.

And the “Maximum % Inhibition, CPE for SARS-CoV-2” value (SARS-CoV-2; recorded <20 μM concentration)?
The value was 29.03%.

And the EC50 [1]?
Its EC50 is 14.9 µM.

What about the “**IL-1β plasma level (second entry of the list)” value (plasma cytokines; [2]) of the same compound?
Its value is “−”.

And the “**TNFα plasma level” value (plasma cytokines; [2])?
Its value is “−”.

And the EGF plasma level (plasma cytokines; [2])?
Its EGF plasma level is “+”.

And the GM-CSF plasma level (plasma cytokines; [2])?
The GM-CSF plasma level was “−”.

What about the IFNα2 plasma level (plasma cytokines; [2]) of the same compound?
The IFNα2 plasma level was “—I—”.

What about the IFNγ plasma level (plasma cytokines; [2]) of the same compound?
The IFNγ plasma level was “−”.

What about the IL-1RA plasma level (plasma cytokines; [2]) of the same compound?
Its IL-1RA plasma level is “−”.

And the “IL-1β plasma level (first entry of the list)” value (plasma cytokines; [2])?
The value was “+”.

What about the IL-2 plasma level (plasma cytokines; [2]) of the same compound?
The IL-2 plasma level was “−”.

What about the IL-4 plasma level (plasma cytokines; [2]) of the same compound?
Its IL-4 plasma level is “−”.

And the IL-6 plasma level (plasma cytokines; [2])?
Its IL-6 plasma level is “−”.

And the IL-8 plasma level (plasma cytokines; [2])?
Its IL-8 plasma level is “−”.

And the IL-12p40 plasma level (plasma cytokines; [2])?
The IL-12p40 plasma level was “+”.

And the IL-12p70 plasma level (plasma cytokines; [2])?
The IL-12p70 plasma level was “−”.

And the IL-13 plasma level (plasma cytokines; [2])?
Its IL-13 plasma level is “−”.

What about the IL-15 plasma level (plasma cytokines; [2]) of the same compound?
The IL-15 plasma level was “−”.

What about the IL-17A plasma level (plasma cytokines; [2]) of the same compound?
Its IL-17A plasma level is “−”.

What about the IP-10 plasma level (plasma cytokines; [2]) of the same compound?
The IP-10 plasma level was “−”.

And the MIP1a plasma level (plasma cytokines; [2])?
The MIP1a plasma level was “−”.

And the RANTES plasma level (plasma cytokines; [2])?
The RANTES plasma level was “+”.

What about the VEGF plasma level (plasma cytokines; [2]) of the same compound?
Its VEGF plasma level is “−”.

What about the “levels of cytokines including EGF, IFN α2, IL-1β, IL-12p40” value (plasma cytokines; [3]) of the same compound?
Its value is “increase”.

What about the “levels of several cytokines including VEGF, GM-CSF, INF-γ, IL-2, IL-12p70, IL-13, IL-15, IL-17a, IL-1RA, IL-1α, IL-2, ILl-4, IL-6, IL-8, il-10, MIP1-α. IL-1 TNF-α” value (plasma cytokines; [3]) of the same compound?
The value was “reduction”.

What about the “symptoms of SARS-CoV-2 infection” value (SARS-CoV-2 infection) of the same compound?
The value was “great improvement in most of the symptoms”.

And the body weight (SARS-CoV-2 infection; had lost twelve pounds within 14 days before)?
Its body weight is “remained at constant weight”.
